ChEMBL document CHEMBL4387741, “Optimization of novel reversible Bruton's tyrosine kinase inhibitors identified using Tethering-fragment-based screens” (Bioorg Med Chem, 2019)

Tests used:
[1] = biological target: Tyrosine-protein kinase JAK1 (Homo sapiens) (UniProt P23458); assay: Inhibition of wild-type human partial length JAK1 JH2 pseudokinase domain (R537 to D855 residues) expressed in mammalian expression system at 1 uM by Kinomescan method relative to control
[2] = biological target: Mitogen-activated protein kinase kinase kinase 4 (Homo sapiens) (UniProt Q9Y6R4); assay: Inhibition of wild-type human partial length MAP3K4 (G1319 to E1608 residues) expressed in bacterial expression system at 1 uM by Kinomescan method relative to control
[3] = tested on: ALK tyrosine kinase receptor (Homo sapiens), Q9UM73 [C1156Y]; assay: Inhibition of wild-type human partial length ALK C1156Y mutant (I1088 to E1409 residues) expressed in mammalian expression system at 1 uM by Kinomescan method relative to control
[4] = biological target: Dual specificity mitogen-activated protein kinase kinase 4 (Homo sapiens) (UniProt P45985); assay: Inhibition of wild-type human partial length MEK4 (S84 to D399 residues) expressed in mammalian expression system at 1 uM by Kinomescan method relative to control
[5] = biological target: Calcium/calmodulin-dependent protein kinase type II subunit beta (Homo sapiens) (UniProt Q13554); assay: Inhibition of wild-type human partial length CAMK2B (M1 to Q380 residues) expressed in bacterial expression system at 1 uM by Kinomescan method relative to control
[6] = biological target: Activin receptor type-2A (Homo sapiens) (UniProt P27037); assay: Inhibition of wild-type human ACVR2A (V171 to T499 residues) expressed in bacterial expression system at 1 uM by Kinomescan method relative to control
[7] = biological target: Ephrin type-A receptor 5 (Homo sapiens) (UniProt P54756); assay: Inhibition of wild-type human partial length EPHA5 (T627 to V930 residues) expressed in bacterial expression system at 1 uM by Kinomescan method relative to control
[8] = biological target: Homeodomain-interacting protein kinase 2 (Homo sapiens) (UniProt Q9H2X6); assay: Inhibition of wild-type human partial length HIPK2 (M153 to S564 residues) expressed in mammalian expression system at 1 uM by Kinomescan method relative to control
[9] = biological target: Phosphatidylinositol 5-phosphate 4-kinase type-2 beta (Homo sapiens) (UniProt P78356); assay: Inhibition of wild-type human full length PIP5K2B (M1 to T416 residues) expressed in bacterial expression system at 1 uM by Kinomescan method relative to control
[10] = tested on: Epidermal growth factor receptor (Homo sapiens), P00533 [L858R,T790M]; assay: Inhibition of human partial length EGFR L858R/T790M double mutant (R669 to V1011 residues) expressed in mammalian expression system at 1 uM by Kinomescan method relative to control
[11] = biological target: Cyclin-dependent kinase 19 (Homo sapiens) (UniProt Q9BWU1); assay: Inhibition of wild-type human partial length CDK11 (M1 to N360 residues) expressed in bacterial expression system at 1 uM by Kinomescan method relative to control
[12] = biological target: Receptor-interacting serine/threonine-protein kinase 1 (Homo sapiens) (UniProt Q13546); assay: Inhibition of wild-type human partial length RIPK1 (M1 to K305 residues) expressed in bacterial expression system at 1 uM by Kinomescan method relative to control
[13] = biological target: Beta-adrenergic receptor kinase 1 (Homo sapiens) (UniProt P25098); assay: Inhibition of wild-type human full length GRK2 (M1 to L689 residues) expressed in mammalian expression system at 1 uM by Kinomescan method relative to control
[14] = biological target: Cyclin-dependent kinase 11A (Homo sapiens) (UniProt Q9UQ88); assay: Inhibition of wild-type human partial length CDC2L2 (D391 to K730 residues) expressed in bacterial expression system at 1 uM by Kinomescan method relative to control
[15] = biological target: RAC-beta serine/threonine-protein kinase (Homo sapiens) (UniProt P31751); assay: Inhibition of wild-type human partial length AKT2 expressed in bacterial expression system at 1 uM by Kinomescan method relative to control
[16] = biological target: Serine/threonine-protein kinase NIM1 (Homo sapiens) (UniProt Q8IY84); assay: Inhibition of wild-type human partial length NIM1 (Q44 to N355 residues) expressed in mammalian expression system at 10 uM by Kinomescan method relative to control
[17] = biological target: Mitogen-activated protein kinase 3 (Homo sapiens) (UniProt P27361); assay: Inhibition of wild-type human full length ERK1 (M1 to P379 residues) expressed in bacterial expression system at 10 uM by Kinomescan method relative to control
[18] = biological target: Testis-specific serine/threonine-protein kinase 1 (Homo sapiens) (UniProt Q9BXA7); assay: Inhibition of wild-type human full length TSSK1B (M1 to Q367 residues) expressed in bacterial expression system at 10 uM by Kinomescan method relative to control
[19] = biological target: Glycogen synthase kinase-3 alpha (Homo sapiens) (UniProt P49840); assay: Inhibition of wild-type human full length GSK3A (M1 to S483 residues) expressed in bacterial expression system at 10 uM by Kinomescan method relative to control
[20] = biological target: Serine/threonine-protein kinase/endoribonuclease IRE1 (Homo sapiens) (UniProt O75460); assay: Inhibition of wild-type human partial length ERN1 (S551 to E852 residues) expressed in mammalian expression system at 10 uM by Kinomescan method relative to control
[21] = biological target: Receptor-type tyrosine-protein kinase FLT3 (Homo sapiens) (UniProt P36888); assay: Inhibition of wild-type human partial length autoinhibited FLT3 (H564 to Y969 residues) expressed in mammalian expression system at 10 uM by Kinomescan method relative to control
[22] = tested on: Receptor-type tyrosine-protein kinase FLT3 (Homo sapiens), P36888 [K663Q]; assay: Inhibition of human partial length FLT3 K663Q mutant (V592 to Y969 residues) expressed in bacterial expression system at 10 uM by Kinomescan method relative to control
[23] = biological target: Ribosomal protein S6 kinase alpha-2 (Homo sapiens) (UniProt Q15349); assay: Inhibition of wild-type human partial length N-terminal RSK3 kinase domain 1 (M1 to Q385 residues) expressed in bacterial expression system at 10 uM by Kinomescan method relative to control
[24] = biological target: Calcium/calmodulin-dependent protein kinase kinase 1 (Homo sapiens) (UniProt Q8N5S9); assay: Inhibition of wild-type human partial length CAMKK1 (R65 to E414 residues) expressed in bacterial expression system at 10 uM by Kinomescan method relative to control
[25] = biological target: Dual specificity testis-specific protein kinase 1 (Homo sapiens) (UniProt Q15569); assay: Inhibition of wild-type human full length TESK1 (R37 to S626 residues) expressed in bacterial expression system at 10 uM by Kinomescan method relative to control
[26] = biological target: Serine/threonine-protein kinase haspin (Homo sapiens) (UniProt Q8TF76); assay: Inhibition of wild-type human partial length HASPIN (I452 to K798 residues) expressed in mammalian expression system at 10 uM by Kinomescan method relative to control

Receptor-interacting serine/threonine-protein kinase 1 (Homo sapiens), sequence (Q13546 whole entry, the tested form may be a part): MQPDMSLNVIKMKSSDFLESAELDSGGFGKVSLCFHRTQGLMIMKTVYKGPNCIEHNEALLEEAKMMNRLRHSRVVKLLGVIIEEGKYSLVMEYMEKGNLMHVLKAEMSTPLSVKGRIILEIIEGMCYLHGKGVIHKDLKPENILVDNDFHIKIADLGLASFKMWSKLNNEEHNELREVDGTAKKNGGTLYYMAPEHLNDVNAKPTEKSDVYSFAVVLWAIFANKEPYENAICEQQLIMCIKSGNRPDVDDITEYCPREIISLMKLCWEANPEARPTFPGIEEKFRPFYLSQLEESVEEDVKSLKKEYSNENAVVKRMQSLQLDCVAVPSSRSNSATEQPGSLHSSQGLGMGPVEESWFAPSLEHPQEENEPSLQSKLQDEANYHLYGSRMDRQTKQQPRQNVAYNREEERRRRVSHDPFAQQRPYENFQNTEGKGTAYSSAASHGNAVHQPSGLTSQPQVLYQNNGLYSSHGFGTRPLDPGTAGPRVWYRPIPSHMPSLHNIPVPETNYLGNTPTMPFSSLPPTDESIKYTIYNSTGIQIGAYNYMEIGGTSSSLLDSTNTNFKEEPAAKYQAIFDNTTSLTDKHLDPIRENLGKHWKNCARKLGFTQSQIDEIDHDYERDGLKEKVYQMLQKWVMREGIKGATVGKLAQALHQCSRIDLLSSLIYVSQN
Dual specificity testis-specific protein kinase 1 (Homo sapiens), sequence (Q15569 whole entry, looked up, the tested form may be a part): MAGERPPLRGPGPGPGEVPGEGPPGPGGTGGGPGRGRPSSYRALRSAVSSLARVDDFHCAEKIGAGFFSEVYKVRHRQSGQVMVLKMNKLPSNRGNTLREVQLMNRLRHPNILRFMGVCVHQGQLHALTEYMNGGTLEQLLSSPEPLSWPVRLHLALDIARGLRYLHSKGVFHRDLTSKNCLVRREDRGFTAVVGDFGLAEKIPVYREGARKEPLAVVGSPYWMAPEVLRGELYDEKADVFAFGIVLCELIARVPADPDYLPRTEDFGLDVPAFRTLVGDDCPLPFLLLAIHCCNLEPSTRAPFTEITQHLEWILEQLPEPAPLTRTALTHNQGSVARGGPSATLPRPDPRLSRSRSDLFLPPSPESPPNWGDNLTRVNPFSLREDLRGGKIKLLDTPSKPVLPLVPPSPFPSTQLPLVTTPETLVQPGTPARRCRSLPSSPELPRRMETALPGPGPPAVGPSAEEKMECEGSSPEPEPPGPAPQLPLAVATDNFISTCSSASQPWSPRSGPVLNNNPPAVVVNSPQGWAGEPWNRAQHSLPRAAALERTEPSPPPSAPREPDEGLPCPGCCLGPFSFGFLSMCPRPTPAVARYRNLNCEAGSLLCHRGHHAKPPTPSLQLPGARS
Mitogen-activated protein kinase kinase kinase 4 (Homo sapiens), sequence (Q9Y6R4 whole entry, the tested form may be a part): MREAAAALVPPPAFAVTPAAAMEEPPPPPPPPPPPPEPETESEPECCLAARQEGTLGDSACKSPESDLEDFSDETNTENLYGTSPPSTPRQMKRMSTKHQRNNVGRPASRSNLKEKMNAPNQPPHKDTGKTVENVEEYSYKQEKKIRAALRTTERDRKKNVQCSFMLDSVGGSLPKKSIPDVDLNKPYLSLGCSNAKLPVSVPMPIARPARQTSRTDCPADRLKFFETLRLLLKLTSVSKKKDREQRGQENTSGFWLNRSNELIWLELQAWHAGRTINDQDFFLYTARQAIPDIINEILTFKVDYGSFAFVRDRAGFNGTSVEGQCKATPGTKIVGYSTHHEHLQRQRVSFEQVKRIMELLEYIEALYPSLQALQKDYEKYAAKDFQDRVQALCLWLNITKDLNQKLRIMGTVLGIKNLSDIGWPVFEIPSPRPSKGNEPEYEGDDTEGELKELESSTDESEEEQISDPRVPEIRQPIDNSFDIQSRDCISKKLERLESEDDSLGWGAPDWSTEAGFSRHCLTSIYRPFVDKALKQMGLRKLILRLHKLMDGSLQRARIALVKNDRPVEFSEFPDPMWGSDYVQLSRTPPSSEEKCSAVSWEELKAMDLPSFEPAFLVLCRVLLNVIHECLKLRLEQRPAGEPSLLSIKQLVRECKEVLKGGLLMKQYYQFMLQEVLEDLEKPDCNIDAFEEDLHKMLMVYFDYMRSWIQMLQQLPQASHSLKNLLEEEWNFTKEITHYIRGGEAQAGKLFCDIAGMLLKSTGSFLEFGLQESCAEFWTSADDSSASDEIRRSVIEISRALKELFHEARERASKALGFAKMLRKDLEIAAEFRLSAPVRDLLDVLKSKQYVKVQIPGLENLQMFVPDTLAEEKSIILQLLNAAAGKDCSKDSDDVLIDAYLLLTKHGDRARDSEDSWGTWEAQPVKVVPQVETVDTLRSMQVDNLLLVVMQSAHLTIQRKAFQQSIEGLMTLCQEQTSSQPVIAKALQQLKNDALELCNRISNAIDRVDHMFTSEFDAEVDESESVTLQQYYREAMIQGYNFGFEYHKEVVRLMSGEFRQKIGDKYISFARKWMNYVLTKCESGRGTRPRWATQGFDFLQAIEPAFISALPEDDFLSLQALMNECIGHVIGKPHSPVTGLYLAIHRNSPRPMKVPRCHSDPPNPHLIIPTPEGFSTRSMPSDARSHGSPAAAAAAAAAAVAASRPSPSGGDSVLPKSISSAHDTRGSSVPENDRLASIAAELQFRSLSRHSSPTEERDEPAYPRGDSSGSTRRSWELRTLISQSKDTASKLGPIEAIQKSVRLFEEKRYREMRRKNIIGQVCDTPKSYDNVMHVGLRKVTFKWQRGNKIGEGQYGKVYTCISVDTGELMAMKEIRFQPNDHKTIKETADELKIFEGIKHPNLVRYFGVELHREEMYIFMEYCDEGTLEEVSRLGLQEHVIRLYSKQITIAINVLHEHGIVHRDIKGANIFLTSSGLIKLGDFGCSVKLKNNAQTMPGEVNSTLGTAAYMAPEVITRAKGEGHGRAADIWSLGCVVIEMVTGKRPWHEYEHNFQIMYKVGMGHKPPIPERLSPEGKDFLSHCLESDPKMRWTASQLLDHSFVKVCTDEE
Cyclin-dependent kinase 19 (Homo sapiens), sequence (Q9BWU1 whole entry, the tested form may be a part): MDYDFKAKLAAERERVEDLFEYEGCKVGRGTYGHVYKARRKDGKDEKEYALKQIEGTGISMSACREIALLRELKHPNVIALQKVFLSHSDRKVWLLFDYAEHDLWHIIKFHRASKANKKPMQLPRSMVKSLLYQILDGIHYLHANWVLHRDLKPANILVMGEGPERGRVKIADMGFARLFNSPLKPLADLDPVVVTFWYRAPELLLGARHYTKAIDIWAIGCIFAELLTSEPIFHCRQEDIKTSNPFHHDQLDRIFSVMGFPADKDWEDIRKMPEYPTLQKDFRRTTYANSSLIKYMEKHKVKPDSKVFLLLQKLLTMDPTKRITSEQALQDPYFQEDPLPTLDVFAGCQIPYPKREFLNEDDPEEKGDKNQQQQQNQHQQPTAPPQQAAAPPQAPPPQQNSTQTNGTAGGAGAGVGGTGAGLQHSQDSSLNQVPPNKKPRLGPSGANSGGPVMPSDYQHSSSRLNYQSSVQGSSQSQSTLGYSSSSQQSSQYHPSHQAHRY
Ribosomal protein S6 kinase alpha-2 (Homo sapiens), sequence (Q15349 whole entry, the tested form may be a part): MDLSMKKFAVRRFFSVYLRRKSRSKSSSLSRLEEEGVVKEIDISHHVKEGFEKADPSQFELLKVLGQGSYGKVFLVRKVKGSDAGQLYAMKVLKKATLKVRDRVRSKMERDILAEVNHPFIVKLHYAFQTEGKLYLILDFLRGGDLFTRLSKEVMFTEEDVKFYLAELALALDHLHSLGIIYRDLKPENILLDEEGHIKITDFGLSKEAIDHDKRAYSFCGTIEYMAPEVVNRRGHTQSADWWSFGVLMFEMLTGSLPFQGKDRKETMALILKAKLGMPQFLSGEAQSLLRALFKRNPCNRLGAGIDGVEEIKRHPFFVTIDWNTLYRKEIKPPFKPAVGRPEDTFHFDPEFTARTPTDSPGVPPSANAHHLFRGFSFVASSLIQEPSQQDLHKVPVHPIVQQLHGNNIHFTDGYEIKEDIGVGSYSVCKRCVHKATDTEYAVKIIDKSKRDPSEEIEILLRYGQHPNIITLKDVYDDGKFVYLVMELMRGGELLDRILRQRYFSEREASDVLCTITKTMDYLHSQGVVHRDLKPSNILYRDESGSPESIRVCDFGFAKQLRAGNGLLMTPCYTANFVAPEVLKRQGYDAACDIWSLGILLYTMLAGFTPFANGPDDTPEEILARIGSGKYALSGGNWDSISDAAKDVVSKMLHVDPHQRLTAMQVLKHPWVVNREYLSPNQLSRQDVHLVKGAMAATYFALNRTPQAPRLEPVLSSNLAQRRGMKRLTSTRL
Glycogen synthase kinase-3 alpha (Homo sapiens), sequence (P49840 2-483 limits assumed): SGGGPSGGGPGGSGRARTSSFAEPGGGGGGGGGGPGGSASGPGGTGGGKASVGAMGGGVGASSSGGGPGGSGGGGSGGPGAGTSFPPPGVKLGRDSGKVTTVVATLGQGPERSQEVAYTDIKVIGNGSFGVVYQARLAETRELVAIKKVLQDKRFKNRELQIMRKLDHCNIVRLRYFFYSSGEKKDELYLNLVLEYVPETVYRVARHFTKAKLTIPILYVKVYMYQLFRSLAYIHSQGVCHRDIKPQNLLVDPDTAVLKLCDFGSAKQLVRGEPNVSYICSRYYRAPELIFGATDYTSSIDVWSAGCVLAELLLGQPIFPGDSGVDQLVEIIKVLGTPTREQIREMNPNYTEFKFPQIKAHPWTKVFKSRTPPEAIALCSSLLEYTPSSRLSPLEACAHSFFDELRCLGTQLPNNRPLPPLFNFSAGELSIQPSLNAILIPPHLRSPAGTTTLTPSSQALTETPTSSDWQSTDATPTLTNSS
Serine/threonine-protein kinase NIM1 (Homo sapiens), sequence (Q8IY84 whole entry, the tested form may be a part): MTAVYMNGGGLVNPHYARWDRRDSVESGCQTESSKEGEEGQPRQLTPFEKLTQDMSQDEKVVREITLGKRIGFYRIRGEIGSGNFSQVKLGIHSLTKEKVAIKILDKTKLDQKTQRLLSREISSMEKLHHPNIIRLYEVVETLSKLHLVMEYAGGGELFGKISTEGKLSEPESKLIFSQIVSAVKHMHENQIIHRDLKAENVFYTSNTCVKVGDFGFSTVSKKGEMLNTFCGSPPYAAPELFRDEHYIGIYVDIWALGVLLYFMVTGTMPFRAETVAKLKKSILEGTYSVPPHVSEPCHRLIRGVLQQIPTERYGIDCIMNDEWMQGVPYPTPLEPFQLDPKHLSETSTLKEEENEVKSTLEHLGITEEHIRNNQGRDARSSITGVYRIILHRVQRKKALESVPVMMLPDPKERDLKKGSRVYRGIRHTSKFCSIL

## O=C(Nc1cccc([C@@H]2CN(c3ncnc4[nH]ccc34)CCN2CCO)c1)Nc1c(F)cccc1N1CCCC1
[1]
  inhibition: 75%
[2]
  inhibition: 100%
[3]
  inhibition: 70%
[4]
  inhibition: 7.2%
[5]
  inhibition: 92%
[6]
  inhibition: 100%
[7]
  inhibition: 92%
[8]
  inhibition: 100%
[9]
  inhibition: 96%
[10]
  inhibition: 97%
[11]
  inhibition: 100%
[12]
  inhibition: 100%
[13]
  inhibition: 96%
[14]
  inhibition: 96%
[15]
  inhibition: 100%

## O=C(Nc1cccc([C@H]2CCCN(c3ncnc4[nH]ccc34)C2)c1)Nc1ccccc1N1CCCC1
[16]
  inhibition: 75%
[17]
  inhibition: 100%
[18]
  inhibition: 100%
[19]
  inhibition: 100%
[20]
  inhibition: 45%
[21]
  inhibition: 72%
[22]
  inhibition: 8.1%
[23]
  inhibition: 78%
[24]
  inhibition: 82%
[25]
  inhibition: 100%
[26]
  inhibition: 63%
